Laboratory results from patent US7186743B2, “Substituted pyrazolyl compounds for the treatment of inflammation” (Pharmacia Corporation, priority 2001, dated 2007).
Structures can show the parent of a compound that is named as a salt. Where two headings read alike, the source gives them in different places.

Molecular target: T1, IKK2 (Homo sapiens, UniProt O14920)
T1 construct: made in house; host or cells: insect cells (baculovirus, pFastBac; SF9)
T1 sequence (O14920 1-756): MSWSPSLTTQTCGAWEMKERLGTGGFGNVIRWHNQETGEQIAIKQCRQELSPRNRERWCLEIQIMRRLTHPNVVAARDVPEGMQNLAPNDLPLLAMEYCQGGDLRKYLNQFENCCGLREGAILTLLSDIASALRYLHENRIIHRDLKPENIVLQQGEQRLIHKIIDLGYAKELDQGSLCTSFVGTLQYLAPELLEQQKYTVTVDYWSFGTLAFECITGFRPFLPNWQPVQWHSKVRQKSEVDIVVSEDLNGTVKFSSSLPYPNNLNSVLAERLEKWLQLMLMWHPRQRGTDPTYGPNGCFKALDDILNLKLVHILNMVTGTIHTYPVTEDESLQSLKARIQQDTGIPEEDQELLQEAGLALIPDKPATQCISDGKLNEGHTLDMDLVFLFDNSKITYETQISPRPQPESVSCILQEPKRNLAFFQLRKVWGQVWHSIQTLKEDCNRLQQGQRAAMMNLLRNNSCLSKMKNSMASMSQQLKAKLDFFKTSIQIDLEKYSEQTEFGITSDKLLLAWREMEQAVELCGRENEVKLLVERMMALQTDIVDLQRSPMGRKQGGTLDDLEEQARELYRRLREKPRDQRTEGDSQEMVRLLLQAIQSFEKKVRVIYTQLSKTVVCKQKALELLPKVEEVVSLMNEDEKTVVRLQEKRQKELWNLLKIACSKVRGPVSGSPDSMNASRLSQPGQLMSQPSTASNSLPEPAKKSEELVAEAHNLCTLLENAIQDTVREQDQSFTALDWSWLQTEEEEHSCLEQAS
Experiment: IKKβ Resin Enzyme Assay (IKK2 resin)
Format: biochemical
How it was run: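 Enzyme: human IKK2 with a C-terminal FLAG tag, baculovirus-expressed, purified as homodimer on anti-FLAG resin. It phosphorylates a biotinylated IκBα peptide with 1 μM ATP plus [γ-33P]ATP in 25 mM Hepes pH 7.6, Mg/Mn, for 30 min at 25° C. Incorporation is counted by scintillation after anion-exchange resin stop.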

[1] = Table 3, read-out: IKK Resin IC50
[2] = Table 18, read-out: IKK2 Resin IC50
[3] = Table 7, read-out: IKK2 Resin IC50
[4] = Table 12, read-out: IKK2 Resin IC50
[5] = Table 14, read-out: IKK2 Resin IC50
[6] = Table 19, read-out: IKK2 Resin IC50
[7] = Table 4, read-out: IKK2 Resin IC50
[8] = Table 15, read-out: IKK2 Resin IC50
[9] = Table 2, read-out: IKK Resin IC50

Compound: CS(=O)(=O)c1ccc(-n2nc(C(N)=O)c3c2-c2cc(NC(=O)c4cc(Br)ccc4Cl)ccc2CC3)cc1 [Example 136, 8-[(5-bromo-2-chlorobenzoyl)amino]-1-[4-(methylsulfonyl)phenyl]-4,5-dihydro-1H-benzo[g]indazole-3-carboxamide]
- IC50 [1]: ≤ 1000 nM

Compound: CCS(=O)(=O)c1ccc(-n2nc(C(N)=O)c3c2-c2cc(NC(=O)c4ccccc4Cl)ccc2CC3)cc1 [Example 395, 8-[(2-chlorobenzoyl)amino]-1-[4-(ethylsulfonyl)phenyl]-4,5-dihydro-1H-benzo[g]indazole-3-carboxamide]
- IC50 [2]: ≤ 1000 nM

Compound: CSc1ccc(Cl)c(C(=O)Nc2ccc3c(c2)-c2c(c(C(N)=O)nn2-c2ccc(S(C)(=O)=O)cc2)CC3)c1 [Example 137, 8-{[2-chloro-5-(methylthio)benzoyl]amino}-1-[4-(methylsulfonyl)phenyl]-4,5-dihydro-1H-benzo[g]indazole-3-carboxamide]
- IC50 [1]: ≤ 1000 nM

Compound: NC(=O)c1nn(-c2ccc(F)cc2)c2c1CCc1ccc(NC(=O)c3cc(N4CCNCC4)ncc3Cl)cc1-2 [Example 253, 8-[(5-chloro-2-piperazin-1-ylisonicotinoyl)amino]-1-(4-fluorophenyl)-4,5-dihydro-1H-benzo[g]indazole-3-carboxamide]
- IC50 [3]: ≤ 1000 nM

Compound: CNC(=O)/C=C/c1ccc(-n2nc(C(N)=O)c3c2-c2cc(NC(=O)c4ccccc4Cl)ccc2CC3)cc1 [Example 311, 8-[(2-chlorobenzoyl)amino]-1-{4-[(1E)-3-(methylamino)-3-oxoprop-1-enyl]phenyl}-4,5-dihydro-1H-benzo[g]indazole-3-carboxamide]
- IC50 [4]: ≤ 1000 nM

Compound: NC(=O)c1nn(-c2cccc(F)c2)c2c1CCc1ccc(NC(=O)c3ccccc3Cl)cc1-2 [Example 339, 8-[(2-chlorobenzoyl)amino]-1-(3-fluorophenyl)-4,5-dihydro-1H-benzo[g]indazole-3-carboxamide]
- IC50 [5]: ≤ 1000 nM

Compound: CSc1ccc(-n2nc(C(N)=O)c3c2-c2cc(NC(=O)c4cc(N)ccc4Cl)ccc2CC3)cc1 [Example 414, 8-[(5-amino-2-chlorobenzoyl)amino]-1-[4-(methylthio)phenyl]-4,5-dihydro-1H-benzo[g]indazole-3-carboxamide hydrochloride]
- IC50 [6]: ≤ 1000 nM

Compound: NC(=O)c1nn(-c2ccc3c(c2)OCO3)c2c1CCc1ccc(NC(=O)c3cc(Cl)ccc3Cl)cc1-2 [Example 189, 1-(1,3-benzodioxol-5-yl)-8-[(2,5-dichlorobenzoyl)amino]-4,5-dihydro-1H-benzo[g]indazole-3-carboxamide]
- IC50 [7]: ≤ 1000 nM

Compound: CN(C)CCSc1ccc(Cl)c(C(=O)Nc2ccc3c(c2)-c2c(c(C(N)=O)nn2-c2ccc(F)cc2)CC3)n1 [Example 257, 8-{[(3-chloro-6-{[2-(dimethylamino)ethyl]thio}pyridin-2-yl)carbonyl]amino}-1-(4-fluorophenyl)-4,5-dihydro-1H-benzo[g]indazole-3-carboxamide]
- IC50 [3]: ≤ 1000 nM

Compound: CNC(=O)/C=C/c1ccc(-n2nc(C(N)=O)c3c2-c2cc(NC(=O)c4cccnc4Cl)ccc2CC3)cc1 [Example 301, 8-{[(2-chloropyridin-3-yl)carbonyl]amino}-1-{4-[(1E)-3-(methylamino)-3-oxoprop-1-enyl]phenyl}-4,5-dihydro-1H-benzo[g]indazole-3-carboxamide]
- IC50 (Table 11, read-out: IKK2 Resin IC50): ≤ 1000 nM

Compound: CSc1ccc(-n2nc(C(N)=O)c3c2-c2cc(NS(C)(=O)=O)ccc2CC3)cc1 [Example 411, 8-[(methylsulfonyl)amino]-1-[4-(methylthio)phenyl]-4,5-dihydro-1H-benzo[g]indazole-3-carboxamide]
- IC50 [6]: ≤ 1000 nM

Compound: CCS(=O)(=O)c1ccc(-n2nc(C(N)=O)c3c2-c2cc(NC(=O)c4cc(N)ccc4Cl)ccc2CC3)cc1 [Example 398, 8-[(5-amino-2-chlorobenzoyl)amino]-1-[4-(ethylsulfonyl)phenyl]-4,5-dihydro-1H-benzo[g]indazole-3-carboxamide]
- IC50 [2]: ≤ 1000 nM

Compound: COc1cccc(CC(=O)Nc2ccc3c(c2)-c2c(c(C(N)=O)nn2-c2ccc(S(C)(=O)=O)cc2)CC3)c1 [Example 157, 8-{[(3-methoxyphenyl)acetyl]amino}-1-[4-(methylsulfonyl)phenyl]-4,5-dihydro-1H-benzo[g]indazole-3-carboxamide]
- IC50 [1]: ≤ 1000 nM

Compound: COCC(=O)Nc1ccc(-n2nc(C(N)=O)c3c2-c2cc(NC(=O)c4ccccc4Cl)ccc2CC3)cc1 [Example 374, 8-[(2-chlorobenzoyl)amino]-1-{4-[(methoxyacetyl)amino]phenyl}-4,5-dihydro-1H-benzo[g]indazole-3-carboxamide]
- IC50 [8]: ≤ 1000 nM

Compound: CCNC(=O)/C=C/c1ccc(-n2nc(C(N)=O)c3c2-c2cc(NC(=O)c4ccccc4Cl)ccc2CC3)cc1 [Example 312, 8-[(2-chlorobenzoyl)amino]-1-{4-[(1E)-3-(ethylamino)-3-oxoprop-1-enyl]phenyl)-4,5-dihydro-1H-benzo[g]indazole-3-carboxamidee]
- IC50 [4]: ≤ 1000 nM

Compound: Cc1ccc(C(=O)Nc2ccc3c(c2)-c2c(c(C(N)=O)nn2-c2ccc(F)cc2)CC3)c(Cl)n1 [Example 227, 8-{[(2-chloro-6-methylpyridin-3-yl)carbonyl]amino}-1-(4-fluorophenyl)-4,5-dihydro-1H-benzo[g]indazole-3-carboxamide]
- IC50 (Table 6, read-out: IKK2 Resin IC 50): ≤ 1000 nM

Compound: NC(=O)c1nn(-c2cccc(N)c2)c2c1CCc1ccc(NC(=O)c3ccccc3Cl)cc1-2 [Example 375, 1-(3-aminophenyl)-8-[(2-chlorobenzoyl)amino]-4,5-dihydro-1H-benzo[g]indazole-3-carboxamide]
- IC50 [8]: ≤ 1000 nM

Compound: CS(=O)(=O)c1ccc(-n2nc(C(N)=O)c3c2-c2cc(NC(=O)c4ccncc4)ccc2CC3)cc1 [Example 110, 8-(isonicotinoylamino)-1-[4-(methylsulfonyl)phenyl]-4,5-dihydro-1H-benzo[g]indazole-3-carboxamide]
- IC50 [9]: ≤ 1000 nM

Compound: CC(C)S(=O)(=O)c1ccc(-n2nc(C(N)=O)c3c2-c2cc(NC(=O)c4ccccc4Cl)ccc2CC3)cc1 [Example 393, 8-[(2-chlorobenzoyl)amino]-1-[4-(isopropylsulfonyl)phenyl]-4,5-dihydro-1H-benzo[g]indazole-3-carboxamide]
- IC50 [2]: ≤ 1000 nM

Compound: CS(=O)(=O)c1ccc(-n2nc(C(N)=O)c3c2-c2cc(NC(=O)c4cc(SC#N)ccc4[N+](=O)[O-])ccc2CC3)cc1 [Example 148, 3-[({3-(aminocarbonyl)-1-[4-(methylsulfonyl)phenyl]-4,5-dihydro-1H-benzo[g]indazol-8-yl}amino)carbonyl]-4-nitrophenylthiocyanate]
- IC50 [1]: ≤ 1000 nM

Compound: CS(=O)(=O)c1ccc(-n2nc(C(N)=O)c3c2-c2cc(NC(=O)c4c(F)cccc4Cl)ccc2CC3)cc1 [Example 134, 8-[(2-chloro-6-fluorobenzoyl)amino]-1-[4-(methylsulfonyl)phenyl]-4,5-dihydro-1H-benzo[g]indazole-3-carboxamide]
- IC50 [1]: ≤ 1000 nM

Compound: Cc1ccc(-n2nc(C(N)=O)c3c2-c2cc(NC(=O)c4ccccc4Cl)ccc2CC3)cc1 [Example 335, 8-[(2-chlorobenzoyl)amino]-1-(4-methylphenyl)-4,5-dihydro-1H-benzo[g]indazole-3-carboxamide]
- IC50 [5]: ≤ 1000 nM

Compound: COc1ccc(C(=O)Nc2ccc3c(c2)-c2c(c(C(N)=O)nn2-c2ccc4c(c2)OCO4)CC3)c(Cl)c1OC [Example 175, 1-(1,3-benzodioxol-5-yl)-8-[(2-chloro-3,4-dimethoxybenzoyl)amino]-4,5-dihydro-1H-benzo[g]indazole-3-carboxamide]
- IC50 [7]: ≤ 1000 nM

Compound: COc1cc(C(=O)Nc2ccc3c(c2)-c2c(c(C(N)=O)nn2-c2ccc(S(C)(=O)=O)cc2)CC3)c([N+](=O)[O-])cc1OC [Example 150, 8-[(4,5-dimethoxy-2-nitrobenzoyl)amino]-1-[4-(methylsulfonyl)phenyl]-4,5-dihydro-1H-benzo[g]indazole-3-carboxamide]
- IC50 [1]: ≤ 1000 nM

Compound: CS(=O)(=O)c1ccc(-n2nc(C(N)=O)c3c2-c2cc(NC(=O)c4ccc(Cl)cc4N)ccc2CC3)cc1 [Example 117, 8-[(2-amino-4-chlorobenzoyl)amino]-1-[4-(methylsulfonyl)phenyl]-4,5-dihydro-1H-benzo[g]indazole-3-carboxamide]
- IC50 [9]: ≤ 1000 nM

Compound: COc1cc(Cl)c(C(=O)Nc2ccc3c(c2)-c2c(c(C(N)=O)nn2-c2ccc(S(C)(=O)=O)cc2)CC3)cc1OC [Example 131, 8-[(2-chloro-4,5-dimethoxybenzoyl)amino]-1-[4-(methylsulfonyl)phenyl]-4,5-dihydro-1H-benzo[g]indazole-3-carboxamide]
- IC50 [1]: ≤ 1000 nM
